Reference: the supplement of paper PMC11061612

Columns and labels:
Experiment in all cases: combination Emax (second highest fraction inhibited in the dose matrix, 72 h); higher = more inhibition; extreme values may be limits of the assay
[1] = test system: AsPC-1 (Pancreatic Carcinoma)
Summary of the method: (§1)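 Bliss excess equals the observed combination effect minus the expected value EA + EB − EA·EB, where EA and EB are the effects of each agent alone. Combination Emax is the second-highest inhibition within the matrix. Inhibition was scaled from CellTiter-Glo 2.0 luminescence, with 0 set by vehicle wells and 1 by blank wells, after 72 hours of two-drug dosing of cells plated in 1536-well plates.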

[2] = test system: NCI-H810 (Non-Small Cell Lung Carcinoma)
Summary of the method: as §1

[3] = test system: NKM-1 (Acute Myeloid Leukemia)
Summary of the method: as §1

[4] = test system: 786-0 (Kidney Carcinoma)
Summary of the method: as §1

[5] = test system: JHH-1 (Hepatocellular Carcinoma)
Summary of the method: as §1

[6] = test system: NCI-H196 (Small Cell Lung Carcinoma)
Summary of the method: as §1

[7] = test system: RERF-LC-KJ (Lung Adenocarcinoma)
Summary of the method: as §1

[8] = test system: OVTOKO (Ovarian Carcinoma)
Summary of the method: as §1

[9] = test system: OCI-AML5 (Acute Myeloid Leukemia)
Summary of the method: as §1

[10] = test system: SK-MM-2 (Plasma Cell Myeloma)
Summary of the method: as §1

[11] = test system: PANC-02-03 (Pancreatic Carcinoma)
Summary of the method: as §1

[12] = test system: OV-90 (Ovarian Carcinoma)
Summary of the method: as §1

[13] = test system: LOUCY (T-Lymphoblastic Leukemia)
Summary of the method: as §1

[14] = test system: RL95-2 (Endometrial Carcinoma)
Summary of the method: as §1

[15] = test system: KYSE-70 (Esophageal Squamous Cell Carcinoma)
Summary of the method: as §1

[16] = test system: HTC-C3 (Thyroid Gland Carcinoma)
Summary of the method: as §1

[17] = test system: RMG-I (Ovarian Carcinoma)
Summary of the method: as §1

[18] = test system: PC-14 (Lung Adenocarcinoma)
Summary of the method: as §1

[19] = test system: HuO-3N1 (Osteosarcoma)
Summary of the method: as §1

SMILES	combination Emax [1]	combination Emax [2]	combination Emax [3]	combination Emax [4]	combination Emax [5]	combination Emax [6]	combination Emax [7]	combination Emax [8]	combination Emax [9]	combination Emax [10]	combination Emax [11]	combination Emax [12]	combination Emax [13]	combination Emax [14]	combination Emax [15]	combination Emax [16]	combination Emax [17]	combination Emax [18]	combination Emax [19]
CN(C)CCCOc1ccc(-c2ccc3ncc4c(c3c2)n(C2CCOCC2)c(=O)n4C)cn1 [AZD0156] + O=C(c1cc(Cc2n[nH]c(=O)c3ccccc23)ccc1F)N1CCN(C(=O)C2CC2)CC1 [Olaparib] (first compound max 3 µM, partner max 3 µM)	0.297	0.306	0.585	0.223	0.196	0.145	0.368	0.33	0.139	0.348	0.248	0.257	0.368	0.384	0.123	0.142	0.29	0.236	0.289
C=CCn1c(=O)c2cnc(Nc3ccc(N4CCN(C)CC4)cc3)nc2n1-c1cccc(C(C)(C)O)n1 [AZD1775] + C1CN(CCC1(C(=O)N[C@@H](CCO)C2=CC=C(C=C2)Cl)N)C3=NC=NC4=C3C=CN4 [Capivasertib] (first compound max 3 µM, partner max 3 µM)	0.505	0.873	0.954	0.817	0.691	0.578	0.548	0.594	0.893	0.501	0.605	0.587	1	0.963	0.534	0.642	0.47	0.859	0.633
COc1nnc2ccc(N3CCC(c4ccc(OCCN5CCN(C)C(=O)[C@H]5C)cc4)CC3)nn12 [AZD5153] + C=CCn1c(=O)c2cnc(Nc3ccc(N4CCN(C)CC4)cc3)nc2n1-c1cccc(C(C)(C)O)n1 [AZD1775] (first compound max 1 µM, partner max 1 µM)	0.381	0.8	0.904	0.641	0.584	0.473	0.957	0.622	0.905	0.878	0.645	0.378	1	0.621	0.47	0.772	0.592	0.883	0.466
COc1nnc2ccc(N3CCC(c4ccc(OCCN5CCN(C)C(=O)[C@H]5C)cc4)CC3)nn12 [AZD5153] + CC1(C)CCC(CN2CCN(c3ccc(C(=O)NS(=O)(=O)c4ccc(NCC5CCOCC5)c([N+](=O)[O-])c4)c(Oc4cnc5[nH]ccc5c4)c3)CC2)=C(c2ccc(Cl)cc2)C1 [Venetoclax] (first compound max 1 µM, 7x7, partner max 1 µM)	0.176	0.583	0.978	0.503	0.391	0.32	0.971	0.507	1	1	0.582	0.387	1	0.426	0.409	0.763	0.599	0.419	0.337
COc1nnc2ccc(N3CCC(c4ccc(OCCN5CCN(C)C(=O)[C@H]5C)cc4)CC3)nn12 [AZD5153] + CCN(CCO)CCCOc1ccc2c(Nc3cc(CC(=O)Nc4cccc(F)c4)[nH]n3)ncnc2c1 [AZD2811] (first compound max 1 µM, 7x7, partner max 1 µM)	0.258	0.694	0.922	0.552	0.446	0.314	0.971	0.539	0.985	0.908	0.592	0.352	0.97	0.524	0.458	0.818	0.546	0.5	0.421
COc1nnc2ccc(N3CCC(c4ccc(OCCN5CCN(C)C(=O)[C@H]5C)cc4)CC3)nn12 [AZD5153] + CN(CC[C@H](CSC1=CC=CC=C1)NC2=C(C=C(C=C2)S(=O)(=O)NC(=O)C3=CC=C(C=C3)N4CCC(CC4)[C@H](C5=CC=CC=C5C6=CC=C(C=C6)Cl)O)S(=O)(=O)C(F)(F)F)CCO [AZD4320] (first compound max 1 µM, 7x7, partner max 1 µM)	0.559	–	–	0.557	0.777	0.276	0.979	0.495	1	–	–	–	–	0.452	–	0.968	–	0.421	0.466
COc1nnc2ccc(N3CCC(c4ccc(OCCN5CCN(C)C(=O)[C@H]5C)cc4)CC3)nn12 [AZD5153] + C[C@@H]1COCCN1C2=NC(=NC(=C2)C3(CC3)[S@](=N)(=O)C)C4=C5C=CNC5=NC=C4 [AZD6738] (first compound max 1 µM, 7x7, partner max 10 µM)	0.367	0.795	0.98	0.754	0.663	0.329	0.968	0.661	0.95	0.917	0.727	0.563	0.997	0.733	0.424	0.845	0.561	0.85	0.427
COc1nnc2ccc(N3CCC(c4ccc(OCCN5CCN(C)C(=O)[C@H]5C)cc4)CC3)nn12 [AZD5153] + Cc1c2c(nn1C)CSCc1cc(n(C)n1)CSc1cc(c3ccccc3c1)OCCCc1c(C(=O)O)n(C)c3c-2c(Cl)ccc13 [AZD5991] (first compound max 1 µM, 7x7, partner max 1 µM)	0.258	0.995	1	0.557	0.906	0.307	0.979	0.531	0.997	0.93	0.595	0.365	0.997	0.928	0.355	0.745	0.58	0.441	0.628
COc1nnc2ccc(N3CCC(c4ccc(OCCN5CCN(C)C(=O)[C@H]5C)cc4)CC3)nn12 [AZD5153] + Cn1cnc2c(F)c(Nc3ccc(Br)cc3Cl)c(C(=O)NOCCO)cc21 [Selumetinib] (first compound max 1 µM, 7x7, partner max 10 µM)	0.595	0.587	0.995	0.577	0.693	0.276	0.868	0.471	1	0.963	0.866	0.817	0.729	0.66	0.424	0.804	0.571	0.589	0.356
NC1(C(=O)N[C@@H](CCO)c2ccc(Cl)cc2)CCN(c2ncnc3[nH]ccc23)CC1 [Capivasertib] + CC(=O)c1c(C)c2cnc(Nc3ccc(N4CCNCC4)cn3)nc2n(C2CCCC2)c1=O [Palbociclib] (first compound max 10 µM, 7x7, partner max 10 µM)	0.396	0.141	0.796	0.681	0.143	0.258	0.436	0.572	0.479	0.409	0.202	0.305	0.688	0.904	0.377	0.474	0.288	0.582	0.432
NC1(C(=O)N[C@@H](CCO)c2ccc(Cl)cc2)CCN(c2ncnc3[nH]ccc23)CC1 [Capivasertib] + CC(C)n1c(=O)n(C)c2cnc3cc(F)c(-c4ccc(OCCCN5CCCCC5)nc4)cc3c21 [AZD1390] (first compound max 10 µM, 7x7, partner max 0.3 µM)	0.208	0.166	0.459	0.489	0.169	0.267	0.449	0.516	0.22	0.243	0.192	0.284	0.623	0.823	0.259	0.308	0.292	0.392	0.46
CC(=O)c1c(C)c2cnc(Nc3ccc(N4CCNCC4)cn3)nc2n(C2CCCC2)c1=O [Palbociclib] + CN(CC[C@H](CSC1=CC=CC=C1)NC2=C(C=C(C=C2)S(=O)(=O)NC(=O)C3=CC=C(C=C3)N4CCC(CC4)[C@H](C5=CC=CC=C5C6=CC=C(C=C6)Cl)O)S(=O)(=O)C(F)(F)F)CCO [AZD4320] (first compound max 10 µM, 7x7, partner max 1 µM)	0.488	–	–	0.534	0.519	0.276	0.141	0.53	1	–	–	–	–	0.358	–	0.515	–	0.311	0.494
C[C@@H](c1ccc2nccn2c1)n1nnc2ncc(-c3cnn(C)c3)nc21 [Savolitinib] + CN(CC[C@H](CSC1=CC=CC=C1)NC2=C(C=C(C=C2)S(=O)(=O)NC(=O)C3=CC=C(C=C3)N4CCC(CC4)[C@H](C5=CC=CC=C5C6=CC=C(C=C6)Cl)O)S(=O)(=O)C(F)(F)F)CCO [AZD4320] (first compound max 1 µM, 7x7, partner max 1 µM)	0.572	–	–	0.149	0.356	0.2	0.206	0.274	1	–	–	–	–	0.167	–	0.282	–	0.173	0.201
